Test results from US20240122844A1, “CARRIER FOR SUSTAINED-RELEASE OF DRUG AND USE THEREOF” (KUNMING QINGCHENG HEALTHCARE TECH LTD., priority 2022, published 2024).
Structures can show the parent of a compound that is named as a salt.

Assay: Sustained release of metformin hydrochloride, ranitidine hydrochloride, vitamin B1 and benzalkonium chloride from carrier formulations into purified water, UV absorbance
Assay type: physicochemical
Settings: released when absorbance is increased less than 0.01
Text: • 1) Test samples: formulation 5, formulation 6, formulation 7, formulation 8, formulation 9; • 2) Drug release medium: purified water (Wahaha®).
• 1) group F where the sample is 0.1990 g of formulation 6 and the medium is 30.11 g of purified water; • 2) group G where the sample is 0.2016 g of formulation 5 and the medium is 30.14 g of purified water; • 3) group H where the sample is 0.2087 g of formulation 7 and the medium is 30.11 g of purified water; • 4) group I where the sample is 0.2016 g of formulation 8 and the medium is 30.12 g of purified water; • 5) group J where the sample is 0.0975 g of formulation 9 and the medium is 30.18 g of purified water.
• 1) The test samples with different formulations were respectively introduced into 2 mL-syringes. 2) About 0.2 g of the test samples, but for benzalkonium chloride about 0.1 g of the test sample, were squeezed out from the syringes without a needle into 30 mL transparent bottles respectively. The tests samples in the bottles were accurately weighed. 3) 30.0 g of the drug release medium was added to each bottle. 4) The absorbance spectrum of the liquid in each bottle was scanned and the absorbance at the wavelength of 232 nm for metformin hydrochloride, 313 nm for ranitidine hydrochloride, 261 nm for vitamin B1, or 219 nm for benzalkonium chloride was measured every 24 hours. 5) In groups H, I and J, the purified water (Wahaha®) was used as the reference solution. In groups F and G, blank carriers in formulations 2 and 3 without metformin hydrochloride were used to prepare the reference solutions according to the above steps 1) to 3) of “4. Experimental method”. The liquids to be tested and the reference solutions of groups F and G were taken from the bottles with the carriers and put back to the bottles after the spectral scanning.

Row | Duration of release of the drug from the sustained-release carriers | Molecule
1 | about 3 days | CN(C)C(=N)N=C(N)N [metformin hydrochloride]
2 | about 4 days | CNC(=C[N+](=O)[O-])NCCSCc1ccc(CN(C)C)o1 [ranitidine hydrochloride]
3 | about 4 days | Cc1ncc(C[n+]2csc(CCO)c2C)c(N)n1 [vitamin B1]
4 | about 4 days | benzalkonium chloride
